Our source for the IC50 values is patent US20230159469A1, “NOVEL PHTHALAZINE DERIVATIVE HAVING ECTONUCLOEOTIDE PYROPHOSPHATASE/PHOSPHODIESTE RASE INHIBITORY ACTIVITY, AND USE THEREOF” (TXINNO BIOSCIENCE INC., priority 2020, published 2023).

Counter-ions that a name gives are not always drawn. Some results are limits rather than exact numbers.

This test addresses T1, human recombinant ENPP1 (Homo sapiens, UniProt P22413).
T1 construct: purchased R & D systems
T1 sequence (P22413 1-925): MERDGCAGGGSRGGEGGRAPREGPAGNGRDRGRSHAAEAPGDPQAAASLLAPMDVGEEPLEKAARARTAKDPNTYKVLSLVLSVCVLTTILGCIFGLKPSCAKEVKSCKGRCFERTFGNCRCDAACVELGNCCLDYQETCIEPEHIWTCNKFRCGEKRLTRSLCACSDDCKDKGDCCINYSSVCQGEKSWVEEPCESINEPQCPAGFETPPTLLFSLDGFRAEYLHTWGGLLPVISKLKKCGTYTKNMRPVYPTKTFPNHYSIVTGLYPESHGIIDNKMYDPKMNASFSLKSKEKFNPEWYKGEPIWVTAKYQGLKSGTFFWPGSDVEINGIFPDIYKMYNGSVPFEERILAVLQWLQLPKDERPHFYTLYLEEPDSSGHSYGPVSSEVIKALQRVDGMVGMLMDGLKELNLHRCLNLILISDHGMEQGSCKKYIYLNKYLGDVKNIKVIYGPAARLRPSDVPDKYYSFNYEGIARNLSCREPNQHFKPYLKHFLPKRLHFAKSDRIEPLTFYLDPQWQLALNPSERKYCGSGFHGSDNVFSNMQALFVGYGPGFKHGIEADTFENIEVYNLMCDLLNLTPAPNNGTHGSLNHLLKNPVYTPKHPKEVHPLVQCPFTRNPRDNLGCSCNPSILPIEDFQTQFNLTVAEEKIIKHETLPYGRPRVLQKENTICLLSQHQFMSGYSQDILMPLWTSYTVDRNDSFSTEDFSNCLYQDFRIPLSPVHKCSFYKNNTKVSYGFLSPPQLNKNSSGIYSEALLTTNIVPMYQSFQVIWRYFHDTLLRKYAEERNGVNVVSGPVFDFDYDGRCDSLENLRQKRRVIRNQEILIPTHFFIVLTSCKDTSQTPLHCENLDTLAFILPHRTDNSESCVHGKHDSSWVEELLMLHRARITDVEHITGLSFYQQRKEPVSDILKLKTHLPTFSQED
As to the kind of experiment: ENPP1 enzyme assay with cGAMP substrate (AMP-Glo luminescence). The format is biochemical. Conditions: human recombinant ENPP1 3 ng/reaction, cGAMP 5 μM, 37° C. 90 minutes, read-out: Enzymatic activity (ENPP1 IC50). How it is done:
ENPP1 hydrolyzes nucleotides or nucleotide derivatives to produce nucleoside -5′-monophosphate and pyrophosphate. in addition, ENPP1 hydrolyzes 2′,3′-cGAMP to produce 5′-adenosine monophosphate (AMP) and 5′-guanosine monophosphate (GMP). AMP produced from the reaction is measured using the AMP-Glo® kit (Promega). The AMP-Glo® kit contains two reagents. The first reagent terminates the AMP-producing enzymatic reaction, removes ATP and converts the produced AMP into ADP. The second reagent converts ADP to ATP which is used to generate luminescence in the luciferase reaction. The amount of luminescence measured is proportional to the amount of AMP produced by ENPP1.
The final reaction mixture contains 50 mM Tris (pH 8.5) buffer, 250 mM NaCl, 0.5 mM. CaCl2, 1 μM ZnCl2, 5% glycerol and 1% DMSO. […] The reaction was initiated by addition of cGAMP (at a final concentration of 5 μM) and reacted at 37° C. for 90 minutes. At the end of the reaction, 10 μl of the AMP-Glo first reagent was added to stop the reaction and the result was stored at room temperature for […]. After storage, 20 μl of an AMP detection solution (a mixture of AMP-Glo II reagent and Kinase-Gio at a ratio of 1:100) was added and stored at room. temperature for 1 hour. Luminescence signals were measured using a Victor® plate reader (Perkin Elmer). The maximal activity control (containing enzymes and substrates only in the presence of 1% DMSO; MAX) and the minimal activity control (containing substrates and 1% DMSO; MIN) were evaluated simultaneously. In each experiment, serially diluted reference ENPP1 inhibitors were tested together. IC50, indicating % residual activity versus compound concentration was determined by fitting inhibition curves using the 3-parameter analysis of GraphPad Prism® software. Serially diluted samples of one compound were tested two or more times and an average IC50 of each compound was calculated.

What is called IC50 is the concentration at which inhibition is half-maximal. For the compound `Cn1nc(-c2ccc3c(c2)CCN(S(=O)(=O)NC(=O)OC(C)(C)C)C3)c2ccccc2c1=O` [Compound No. 84, tert-butyl ((6-(3-methyl-4-oxo-3,4-dihydrophthalazin-1-yl)-3,4-dihydroisoquinolin-2(1H)-yl)sulfonyl)carbamate], the IC50 is more than 10000 nM. The figure for `COc1cc2c(-c3ccc4c(c3)CCN(S(=O)(=O)NC(=O)OC(C)(C)C)C4)n[nH]c(=O)c2cc1OC` [Compound No. 85, tert-butyl ((6-(6,7-dimethoxy-4-oxo-3,4-dihydrophthalazin-1-yl)-3,4-dihydroisoquinolin-2(1H)-yl)sulfonyl)carbamate] is more than 10000 nM; for `Cn1nc(-c2cccc(NS(N)(=O)=O)c2)c2ccccc2c1=O` [Compound No. 88, N-(3-(3-methyl-4-oxo-3,4-dihydrophthalazin-1-yl)phenyl)sulfamide hydrochloride] it is less than 1000 nM. The result for `NS(=O)(=O)Nc1cccc(-c2nn(Cc3ccccc3)c(=O)c3ccccc23)c1` [Compound No. 89, N-(3-(3-benzyl-4-oxo-3,4-dihydrophthalazin-1-yl)phenyl)sulfamide hydrochloride] reads less than 1000 nM. As for `NS(=O)(=O)NCc1cccc(-c2nn(Cc3ccccc3)c(=O)c3ccccc23)c1` [Compound No. 90, N-(3-(3-benzyl-4-oxo-3,4-dihydrophthalazin-1-yl)benzyl)sulfamide hydrochloride], the IC50 was more than 10000 nM. With `NS(=O)(=O)Nc1ccc(-c2n[nH]c(=O)c3ccccc23)cc1` [Compound No. 91, N-(4-(4-oxo-3,4-dihydrophthalazin-1-yl)phenyl)sulfamide], the IC50 lay in the range of 1000 to 10000 nM. The result for `Cn1nc(-c2ccc(NS(N)(=O)=O)cc2)c2ccccc2c1=O` [Compound No. 92, N-(4-(3-methyl-4-oxo-3,4-dihydrophthalazin-1-yl)phenyl)sulfamide] reads less than 1000 nM; that for `NS(=O)(=O)Nc1ccc(-c2nn(Cc3ccccc3)c(=O)c3ccccc23)cc1` [Compound No. 93, N-(4-(3-benzyl-4-oxo-3,4-dihydrophthalazin-1-yl)phenyl)sulfamide], more than 10000 nM; that for `Cn1nc(-c2cccc(CNS(N)(=O)=O)c2)c2ccccc2c1=O` [Compound No. 94, N-(3-(3-methyl-4-oxo-3,4-dihydrophthalazin-1-yl)benzyl)sulfamide trifluoroacetic acid], less than 1000 nM. The result for `NS(=O)(=O)NCc1cccc(-c2n[nH]c(=O)c3ccccc23)c1` [Compound No. 95, N-(3-(3-oxo-3,4-dihydrophthalazin-1-yl)benzyl)sulfamide hydrochloride] reads less than 1000 nM; that for `NS(=O)(=O)NCc1ccc(-c2n[nH]c(=O)c3ccccc23)cc1` [Compound No. 96, N-(4-(4-oxo-3,4-dihydrophthalazin-1-yl)benzyl)sulfamide hydrochloride], less than 1000 nM. The result for `Cn1nc(-c2ccc(CNS(N)(=O)=O)cc2)c2ccccc2c1=O` [Compound No. 97, N-(4-(3-methyl-4-oxo-3,4-dihydrophthalazin-1-yl)benzyl)sulfamide hydrochloride] reads less than 1000 nM; that for `CCn1nc(-c2ccc(CNS(N)(=O)=O)cc2)c2ccccc2c1=O` [Compound No. 98, N-(4-(3-ethyl-4-oxo-3,4-dihydrophthalazin-1-yl)benzyl)sulfamide hydrochloride], 1000 to 10000 nM; that for `CC(C)n1nc(-c2ccc(CNS(N)(=O)=O)cc2)c2ccccc2c1=O` [Compound No. 99, N-(4-(3-isopropyl-4-oxo-3,4-dihydrophthalazin-1-yl)benzyl)sulfamide trifluoroacetic acid], more than 10000 nM.

Take `NS(=O)(=O)NCc1ccc(-c2nn(-c3ccccc3)c(=O)c3ccccc23)cc1` [Compound No. 100, N-(4-(4-oxo-3-phenyl-3,4-dihydrophthalazin-1-yl)benzyl)sulfamide hydrochloride]: the IC50 was less than 1000 nM. The figure for `NS(=O)(=O)NCc1ccc(-c2nn(Cc3ccccc3)c(=O)c3ccccc23)cc1` [Compound No. 101, N-(4-(3-benzyl-4-oxo-3,4-dihydrophthalazin-1-yl)benzyl)sulfamide hydrochloride] is 1000 to 10000 nM. Turning to `NS(=O)(=O)NCc1ccc(-c2nn(Cc3ccc(F)cc3)c(=O)c3ccccc23)cc1` [Compound No. 102, N-(4-(3-(4-fluorobenzyl)-4-oxo-3,4-dihydrophthalazin-1-yl)benzyl)sulfamide hydrochloride], the IC50 fell in the range of 1000 to 10000 nM. The figure for `COc1ccc2c(=O)[nH]nc(-c3ccc(CNS(N)(=O)=O)cc3)c2c1` [Compound No. 103, N-(4-(7-methoxy-4-oxo-3,4-dihydrophthalazin-1-yl)benzyl)sulfamide hydrochloride] is less than 1000 nM; for `COc1cc2c(-c3ccc(CNS(N)(=O)=O)cc3)n[nH]c(=O)c2cc1OC` [Compound No. 104, N-(4-(6,7-dimethoxy-4-oxo-3,4-dihydrophthalazin-1-yl)benzyl)sulfamide hydrochloride] it is less than 1000 nM.

On to `COc1ccc2c(=O)n(C)nc(-c3ccc(CNS(N)(=O)=O)cc3)c2c1` [Compound No. 105, N-(4-(7-methoxy-3-methyl-4-oxo-3,4-dihydrophthalazin-1-yl)benzyl)sulfamide hydrochloride], for which the IC50 is 1000 to 10000 nM. The result for `COc1ccc2c(-c3ccc(CNS(N)(=O)=O)cc3)n[nH]c(=O)c2c1` [Compound No. 106, N-(4-(6-methoxy-4-oxo-3,4-dihydrophthalazin-1-yl)benzyl)sulfamide hydrochloride] reads 1000 to 10000 nM; that for `COc1ccc2c(-c3ccc(CNS(N)(=O)=O)cc3)nn(C)c(=O)c2c1` [Compound No. 107, N-(4-(6-methoxy-3-methyl-4-oxo-3,4-dihydrophthalazin-1-yl)benzyl)sulfamide hydrochloride], more than 10000 nM; that for `COc1cc2c(-c3ccc(CNS(N)(=O)=O)cc3)nn(C)c(=O)c2cc1OC` [Compound No. 108, N-(4-(6,7-dimethoxy-3-methyl-4-oxo-3,4-dihydrophthalazin-1-yl)benzyl)sulfamide hydrochloride], 1000 to 10000 nM. The figure for `COc1cc2c(-c3cccc(CNS(N)(=O)=O)c3)n[nH]c(=O)c2cc1OC` [Compound No. 109, N-(3-(6,7-dimethoxy-4-oxo-3,4-dihydrophthalazin-1-yl)-benzyl) sulfamide] is 1000 to 10000 nM; for `COc1cc2c(-c3cccc(CNS(N)(=O)=O)c3)nn(C)c(=O)c2cc1OC` [Compound No. 110, N-(3-(6,7-dimethoxy-3-methyl-4-oxo-3,4-dihydrophthalazin-1-yl)-benzyl) sulfamide] it is 1000 to 10000 nM; for `COc1cc2c(-c3ccc(CNS(N)(=O)=O)c(F)c3)n[nH]c(=O)c2cc1OC` [Compound No. 111, N-(4-(6,7-dimethoxy-4-oxo-3,4-dihydrophthalazin-1-yl)-2-fluorobenzyl)sulfamide hydrochloride] it is less than 1000 nM. The figure for `COc1cc2c(-c3ccc(CNS(N)(=O)=O)cc3F)n[nH]c(=O)c2cc1OC` [Compound No. 112, N-(4-(6,7-dimethoxy-4-oxo-3,4-dihydrophthalazin-1-yl)-3-fluorobenzyl)sulfamide hydrochloride] is 1000 to 10000 nM; for `COc1cc2c(-c3ccc(CN(C)S(N)(=O)=O)c(F)c3)n[nH]c(=O)c2cc1OC` [Compound No. 113, N-(4-(6,7-dimethoxy-4-oxo-3,4-dihydrophthalazin-1-yl)-2-fluorobenzyl)-N-methyl sulfamide hydrochloride] it is 1000 to 10000 nM.
